“And” between values parts separate entries of the source, which are not always exact repeats. Equal values may be shown once.
Key:
[1] = tested on: Zucker rats (insulin resistant); assay: Sensitivity of the empirical index of glucose transport into the skeletal muscle, Rosiglitazone vs placebo; type: in vivo, rat; conditions: three weeks after treatment
Description: (§1) This graph represents the mean obtained during calculations of the empirical descriptor in the skeletal muscle, in the Zucker rat, with or without treatment with Rosiglitazone or with a placebo. The values of the descriptor are shown on the y-axis. The x-axis comprises 4 columns: the two on the left and the two on the right; the two on the left relate to the values observed for the rats at the start of observation before any injection, and the two on the right relate to the rats 21 days after injection. The white columns indicate rats having undergone an injection of Rosiglitazone, the black columns indicate rats having undergone an injection of a placebo.
The rat receives a first bolus of 6-DIG labelled with iodine 123 (about 250 μCi, this activity being counted in a Capintec CRC15R ionisation chamber supplied by Aries, France) in the basal condition. The activity of the 6-DIG is monitored with the gamma camera (field of view 10 cm, intrinsic resolution 1.8 mm, Biospace, France), or with the NaI probe (Scintibloc from Crismatec (Nemours, France) and ScintiSPEC, Aries) in skeletal muscle cells (quadriceps of hind paw) for 20 minutes. During these 20 minutes, the radioactivity is counted in “LIST” mode (TD. Cradduck, Computers in Nuclear Medicine, Vol. 5; No. 1, 1985, Radiographics) and analysed a posteriori […]

[2] = tested on: Zucker rats (insulin resistant); assay: Sensitivity of the theoretical index k(2,1) insulin/basal of glucose transport into the heart, Rosiglitazone vs placebo; type: in vivo, rat; conditions: seven days after treatment, p<0.05, FIG. 18
Description: as §1, with “theoretical index” for “empirical descriptor”, “heart,” for “skeletal muscle,”, “index” for “descriptor”, “7” for “21”
The model utilised is a three-compartment mammillary model, derived from that used to measure the kinetic parameters of transport of 3OMG, the reference tracer for glucose transport (Cobelli, 1989; Am. J. Physiol., 257, E444-E450). It makes it possible to study the biological behaviour of the tracer after injection in the rat in vivo (Slimani L. et al., CR Biol, 2002, 325(4), 529-546). The central compartment (s1) represents the plasma. […] The radioactivity measured at the level of compartments 1 and 2 is designated respectively as q1 and q2. […]
The index characterizing the rate of glucose transport into the heart was measured twice, 7 days apart, on the same animal, treated with Rosiglitazone or a placebo. […]

[3] = tested on: Zucker rats (insulin resistant); assay: Sensitivity of the empirical index of glucose transport into the heart, Rosiglitazone vs placebo; type: in vivo, rat; conditions: three weeks after treatment
Description: This graph represents the mean obtained during the calculations of empirical descriptor in the heart, in the Zucker rat, with or without treatment with Rosiglitazone or with a placebo. The values of the descriptor are shown on the y-axis. The x-axis comprises 4 columns: the two on the left and the two on the right; the two on the left relate to the values observed for the rats at the start of observation before any injection, and the two on the right relate to the rats 21 days after injection. The white columns indicate rats having undergone an injection of Rosiglitazone, the black columns indicate rats having undergone an injection of a placebo.
The rat receives a first bolus of 6-DIG labelled with iodine 123 (about 250 μCi, this activity being counted in a Capintec CRC15R ionisation chamber supplied by Aries, France) in the basal condition. The activity of the 6-DIG is monitored with the gamma camera (field of view 10 cm, intrinsic resolution 1.8 mm, Biospace, France) in cardiac cells for 20 minutes. During these 20 minutes, the radioactivity is counted in “LIST” mode and analysed a posteriori.
The rat then receives an injection of insulin (2.5 IU/kg), performed 5 minutes before a second injection of the tracer (about 250 μCi). The activity of the 6-DIG is again monitored with the gamma camera in cardiac cells for 20 minutes. […]

[4] = Scintigraphy of 123I-6DIG in the dog: thoracic and blood activity, fasting or under GIK; type: in vivo; conditions: for slope of cardiac activity measured between 2 and 5 minutes: dog heart, FIG. 8
Procedure: This graph represents on the y-axis the variations in […], for one pixel and in the quantity (in mCi) of 6DIG injected, in relation to the x-axis which represents the data acquisition time in minutes, in the heart of a dog. The measured activity is related to the number of pixels, since when a region of interest is determined on a scintigraphy image, the number of pixels in the manually selected zone is not always the same.
Two series of data are shown; a first series of measurements indicated by linked squares represents the data recorded for a fasting animal. A second series of data, indicated by linked circles, represents the data recorded for an animal perfused with a GIK solution (Glucose/Insulin/potassium).
Animals: male beagle dogs aged about 1 year, weighing between 15 and 20 kg and fed with a standard diet Jape 21 (Ets L. Pietrement).
The dogs, premedicated with an intramuscular injection of ketamine (10 mg/kg), are anaesthetised by means of an intravenous injection of sodium thiopental (25 mg/kg). The animals are intubated and ventilated throughout the experiment and kept asleep with halothane in the ventilation circuit (oxygen-enriched air).
6DIG (20 μmol) labelled with iodine 123 (about 4 mCi) is injected intravenously. The scintigraphy images are acquired by means of a standard gamma camera equipped with a high resolution collimator and the […] is set at 160 keV with a 20% window. The variation in the thoracic radioactivity (heart, lungs and liver) with time is measured for 30 minutes post-injection, at the rate of one image per minute. The change in the blood activity is obtained by taking blood samples (1, 2, 3, 4, 5, 10. 15, 20 and 30 min p.i.) and the measurement of the radioactivity by means of a gamma counter (Packard).
Two protocols were followed, the first was implemented in fasting animals (withdrawal of food the night before the experiment, n=1) and the second was implemented in animals perfused with a GIK (Glucose/Insulin/Potassium) solution containing in particular insulin (30% glucose, 4 g/l of KCl and 80 IU/kg of insulin, n=2) and maintained throughout the experiment.

Row | Compound | empirical descriptor (empirical index of rate of glucose transport into the skeletal muscle) vs rats treated with placebo ([1]; p=0.005, FIG. 16) | empirical descriptor (empirical index of rate of glucose transport into the skeletal muscle) vs same rats before treatment ([1]; p=0.021, FIG. 16) | index characterizing the rate of glucose transport into the heart (theoretical index) vs rats treated with placebo [2] | empirical descriptor (empirical index of rate of glucose transport into the heart) vs rats treated with placebo ([3]; p=0.006, FIG. 12) | empirical descriptor (empirical index of rate of glucose transport into the heart) vs same rats before treatment ([3]; p=0.033, FIG. 12) | slope of cardiac activity measured between 2 and 5 minutes ([4]; fasting) | slope of cardiac activity measured between 2 and 5 minutes ([4]; under GIK perfusion) | blood activity ([4]; dog, i.v., blood samples, gamma counter) | pulmonary activity ([4]; dog, i.v., gamma camera) | activity in the liver ([4]; dog, i.v., gamma camera, 30 minutes post-injection)
1 | CN(CCOc1ccc(CC2SC(=O)NC2=O)cc1)c1ccccn1 (racemic) [Rosiglitazone, (±)-5-[[4-[2-(methyl-2-pyridinylamino)ethoxy]phenyl]methyl]-2,4-thiazolidinedione] | significantly greater | significantly greater | significantly greater | significantly greater | significantly greater | – | – | – | – | –
2 | O=C[C@H](O)[C@@H](O)[C@H](O)[C@H](O)CI [6DIG, 6-Deoxy-6-Iodo-D-Glucose] | – | – | – | – | – | 0.013 | 0.044 and 0.022 | decreases very rapidly | low and comparable to the background noise | greatest in the liver at 5 minutes but decreases rapidly

From patent US20110166428A1, “NOVEL METHOD FOR MEASURING INSULIN RESISTANCE” (UNIVERSITE JOSEPH FOURIER, priority 2008, published 2011)
